1 compound from patent US9808434B2, “Compound for treating cancer and diabetes” (CITY OF HOPE, priority 2011, dated 2017) can be followed below.

In data set [1] the test system is A2058 cells. Nature of the data set: Mitochondrial membrane depolarization, TMRE. In kind it is cell-based, human. Particulars: 5 μM. The procedure: Cells (4×10^5/well in 6-well plates) cultured overnight were pre-incubated with the fluorescent indicator of MMP tetramethylrhodamine ester (TMRE, 200 nM) or DMSO control for 30 min at 37° C. in CO2 incubator. Cells were washed with pre-warmed normal DMEM media, and test compounds were added with fresh media for the indicated times. Cells were then trypsinized, collected, centrifuged for 5 min at 800×g, and washed once in pre-warmed PBS-0.2% BSA. Cells were then resuspended in the same buffer prior to flow cytometric analysis. A total of 30,000 cells were counted per sample and data was analyzed by Cyan ADP flow cytometer with excitation/emission of 488 nm/572 nm (Beckman Coulter, Inc., Brea, Calif.). For measurements of membrane potential in isolated mouse liver mitochondria, the organelles were pre-incubated with 200 nM TMRE in MASSRO buffer (MAS buffer supplemented with 10 mM succinate, 1 μM rotenone, and 1 μM oligomycin) for 20 min at 25° C. The mitochondria were centrifuged for 5 min at 3000×g and resuspended in MASSRO buffer. Mitochondria were then added to MASSRO buffer containing the indicated concentrations of COH-SR4, FCCP or DMSO vehicle control and incubated at room temperature for 15 min. […] TMRE fluorescence was measured with a microplate reader (Tecan Infinite M200 Pro, Tecan Group Ltd., Switzerland) using an excitation emission of 545ex/580em. […]

The subject of data set [2] is H520. Nature of the data set: Colony formation assay, H520. It is filed as cell-based, human. The settings on record: 1.5 μM. The procedure: Cell survival was evaluated using a standard colony-forming assay. In total, 1×10^5 cells/mL were incubated with COH-SR4 (1.5 μM or 5 μM) or elesclomol (5 μM) for 24 h, and aliquots of 50 or 100 μL were added to 60 mm size petri dishes, containing 4 mL culture medium. After 7 or 10 days, adherent colonies were fixed, stained with 0.5% methylene blue for 30 min and colonies were counted using the Innotech Alpha Imager HP (91).
The effect of COH-SR4 was first examined in a NCI panel of cancer cell lines, the results of which indicated good activity of COH-SR4 towards lung cancer (FIG. 78A). […] Values are presented as mean±SD from two separate determinations with eight replicates each (n=16) (FIG. 78B). The COH-SR4 treatment exerted a significant inhibitory effect on the survival of lung cancer cells [IC50: H1417 cells-1.2±0.2 μM, H1618 cells-1.5±0.2 μM, H358 cells-2.1±0.2 μM and H520 cells-2.4±0.3 μM]. […] Following initial screening for the anticancer activity of COH-SR4, the effect of COH-SR4 on clonogenic potential was studied. Standard colony-forming assay was performed and the colonies were counted using Innotech Alpha Imager HP. […] The effect of COH-SR4 on induction of apoptosis was further investigated. […] TUNEL assay was performed using Promega fluorescence detection kit and examined using Zeiss LSM 510 META laser-scanning fluorescence microscope with filters 520 and 620 nm. […]

In data set [3] the test system is AMPK. Nature of the data set: AMPK activation in human melanoma cell lines. In kind it is cell-based. Particulars: regardless of BRAF, NRAS and LKB1 mutation. The procedure: Cell or tissue proteins were extracted with cell lysis buffer (Cell Signaling Technology) and protein concentration was determined using the DC Protein Assay kit (Bio-Rad, Hercules, Calif., USA). Equal amount of proteins (˜40 μg) were loaded onto 4-15% Criterion TGX gels (Bio-Rad, Hercules, Calif.), resolved by SDS-PAGE electrophoresis, and then transferred onto nitrocellulose membranes for immunoblotting. Membranes were blocked with 5% skimmed milk in Tris-buffered saline containing 0.05% Tween 20 before incubation overnight at 4° C. with desired primary antibodies. Immuno-reactive proteins were visualized by peroxidase-labeled secondary antibodies and ECL system (Western Lightning Chemiluminescence Reagent, Perkin-Elmer, Mass., USA). Equal loading of proteins was confirmed by stripping and re-probing the membranes with either β-actin or GAPDH antibodies. Band intensities were quantified using a densitometer (Quantity One, Bio-Rad, Hercules, Calif.).
One of the consequences of mitochondria uncoupling is decrease intracellular ATP production, leading to increased AMP:ATP ratio and triggering activation of the energy-sensitive enzyme AMPK. It has been previously shown that COH-SR4 indirectly activates AMPK in a time- and dose-dependent manner in both HepG2 cells and 3T3-adipocytes. […] In melanomas, mutation rates for BRAF NRAS and LKB1 are 50-70%, 5-30%, and 10%, respectively. […]

Data set [4] concerns U87. The experiment in a line: Glioma ATP viability assay, U87. Particulars: Homo sapiens, U-87 MG; Table 1; 72 hours. It is filed as cell-based. The procedure: Cells of each cell line (U251, U87, PBT-017, PBT018, PBT003 and PBT028) were treated with various concentrations (0˜100 μM) of COH-SR4 for 72 hours. Cell viabilities were determined by ATP viability assays. Data were represented as a ratio to vehicle (DMSO) control, and plotted as mean±SEM (n=12) obtained from 2˜3 experiments (FIG. 34A).
Cells of each cell line (U87, U251, PBT003 and PVT-017) were treated with various concentrations (0˜100 μM) of COH-SR4 for 72 hours. Cell viabilities were determined by ATP viability assays. Data were represented as a ratio to vehicle (DMSO) control, and plotted as mean±SEM (n=12) obtained from 2-3 experiments (FIG. 34B).

The nature of data set [5]: Metabolic effects in HFD obese mice. In kind it is in vivo, mouse. The procedure: All animal experiments were carried out in accordance with the protocols approved by the Institutional Animal Care and Use Committee of the City of Hope. Nine-week old male C57BL/6J mice fed on high fat diet (HFD, 60% fat) and 10-week old db/db mice were given COH-SR4 (5 mg/kg B.W.) or vehicle (corn oil) via oral gavage every other day for six and five weeks, respectively. Oral glucose tolerance test was performed on animals after an overnight fast. All other metabolic parameters were measured at the end of study. Liver samples were stained with H&E and Oil Red O.
All data represented are mean±SEM. *P<0.05, **P<0.01 vs. LFD or db/+; ^#P<0.05, ^##P<0.01 vs. HFD or db/db. n=12 animals per group for HFD mice. LFD=low fat diet (lean), HFD=high fat diet (obese). n=8 animals per group for db/db mice.
Representative mice in each treatment group (LFD, HFD, and HFD treated with COH-SR4 (HFD+SR4)) depicted gross images of whole body shape (top) and abdominal fat (bottom) (FIG. 85A).

Broadly, the IC50 is the concentration needed to halve the response being measured. Higher therefore signals weaker potency. `O=C(Nc1cc(Cl)cc(Cl)c1)Nc1cc(Cl)cc(Cl)c1` [COH-SR4, 1,3-bis(3,5-dichlorophenyl) urea]: the “mitochondrial membrane depolarization (TMRE fluorescence)” value in data set [1] was “induced mitochondrial membrane depolarization in a time-dependent manner”. Also, in data set [2], the colony formation was 54±5%. Also, in data set [3], the “activation of AMPK” value is “dose- and time-dependent activation of AMPK”. Moreover, the IC50 in data set [4] was found to be 2800 nM. The body weight result in data set [5] (5 mg/kg oral every other day, six weeks) is listed as “decreased body weight”. For the same compound, in data set [5] (six weeks), the glucose tolerance entry was “improved glucose tolerance”; the “hepatic lipid accumulation (Oil Red O, H&E)” value is “little hepatic lipid accumulation”; the plasma insulin concentration result was “lower plasma insulin concentration”; the plasma lipids result is “significantly reduced plasma lipids”. The food intake result in data set [5] (vs control HFD mice) is on record as “No significant difference in food intake”.
